Among the data in US20160046579A1, “THERAPEUTIC COMPOUNDS AND COMPOSITIONS” (AGIOS PHARMACEUTICALS, INC., priority 2013, published 2016) are AC50 values, retold here.

For assay [1], the target named is PKR R510Q (Homo sapiens, UniProt P30613, R510Q). As to the kind of experiment: PKR Mutant Assay, dose response (AC50), PKR R510Q. The following applies: PKR R510Q mutant enzyme. It counts as biochemical. The procedure: (§1) • PKR or PKR mutant enzyme solution was diluted in assay buffer. • 2 μL of test compound was added into wells first, and then 180 μL reaction mix was added. • Reactions mixture with test compound was assembled except for ADP, and plates were stored for 60 minutes at room temperature. • 20 uL ADP was added to start reaction at room temperature and reaction progress was measured as changes in absorbance at 340 nm wavelength at room temperature.
PKR R510Q, sequence (P30613 whole entry R510Q): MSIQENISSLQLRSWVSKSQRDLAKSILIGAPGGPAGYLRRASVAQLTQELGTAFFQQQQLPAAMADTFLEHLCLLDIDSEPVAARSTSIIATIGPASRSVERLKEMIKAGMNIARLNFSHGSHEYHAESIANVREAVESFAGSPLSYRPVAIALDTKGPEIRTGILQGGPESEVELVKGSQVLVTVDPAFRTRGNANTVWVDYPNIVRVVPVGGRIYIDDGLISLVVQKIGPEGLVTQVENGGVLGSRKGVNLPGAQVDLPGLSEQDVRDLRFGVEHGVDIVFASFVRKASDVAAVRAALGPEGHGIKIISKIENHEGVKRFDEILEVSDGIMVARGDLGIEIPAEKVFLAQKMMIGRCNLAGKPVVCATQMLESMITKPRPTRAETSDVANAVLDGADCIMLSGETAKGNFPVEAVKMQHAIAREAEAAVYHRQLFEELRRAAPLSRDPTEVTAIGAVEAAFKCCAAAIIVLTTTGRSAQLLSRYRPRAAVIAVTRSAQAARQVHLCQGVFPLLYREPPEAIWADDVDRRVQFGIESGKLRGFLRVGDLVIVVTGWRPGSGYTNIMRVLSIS
(§2) Test Compound Preparation: • Test compound stock was made at 100× concentration in 100% DMSO (10 mM) • 1 to 3 dilutions were made for 11 points (i.e. 50 μl of first concentration added to 100 μl 100% DMSO to yield 3.33 mM, 50 μl of this added to 100 μl DMSO to yield 1.11 mM, and so forth) • 1 to 100 dilution into assay (2 μl in 200 μl) yielded starting concentration of 100 μM, decreasing 3 fold for 11 points.

In assay [2] the target is T1, wt PKR (Homo sapiens, UniProt P30613). As to the kind of experiment: PKR Mutant Assay, dose response (AC50), wild type PKR enzyme. It counts as biochemical. The following applies: wild type PKR enzyme. The procedure:
as §1, §2

For assay [3], the target named is T1, wt PKR. Put plainly: wt PKR cell based assay.
Assay [4] addresses PKR R532W (Homo sapiens, UniProt P30613, R532W). As to the kind of experiment: PKR Mutant Assay, dose response (AC50), PKR R532W. It counts as biochemical. As to conditions: PKR R532W mutant enzyme. The procedure:
as §1, §2

Some results are limits rather than exact numbers.

PKR R532W, sequence (P30613 whole entry R532W): as the sequence (P30613 whole entry R510Q) above, with Q510R, R532W counted along it
T1 sequence (P30613 whole entry): as the sequence (P30613 whole entry R510Q) above, with Q510R counted along it

By AC50 is commonly meant the concentration giving half of the maximal activity seen. As to `O=C(c1ccc(NS(=O)(=O)c2cccc3scnc23)cc1)N1CCC(O)(C2CCC(O)CC2)CC1` (stereo not drawn) [Compound 501, N-(4-(4-hydroxy-4-(4-hydroxycyclohexyl)piperidine-1-carbonyl)phenyl)benzo[d]thiazole-4-sulfonamide], the AC50 in assay [1], in assay [2], in assay [3] and in assay [4] was 101 to 1000 nM throughout.

As for `O=C(c1ccc(NS(=O)(=O)c2cccc3nccnc23)cc1)N1CCC(O)(C2CCC(O)CC2)CC1` (stereo not drawn) [Compound 502, N-(4-(4-hydroxy-4-(4-hydroxycyclohexyl)piperidine-1-carbonyl)phenyl)quinoxaline-5-sulfonamide], the AC50 in assay [1], in assay [2], in assay [3] and in assay [4] was 101 to 1000 nM throughout.

For the molecule `Cn1nccc1CC1(O)CCN(C(=O)c2ccc(NS(=O)(=O)c3cccc4nccnc34)cc2)CC1` [Compound 508, N-(4-(4-hydroxy-4-((1-methyl-1H-pyrazol-5-yl)methyl)piperidine-1-carbonyl)phenyl)quinoxaline-5-sulfonamide], the half-maximal activity concentration (AC50) was 101 to 1000 nM in assay [1], under 100 nM in assay [2], under 100 nM in assay [3] and under 100 nM in assay [4].

On to `Cc1cc(CC2(O)CCN(C(=O)c3ccc(NS(=O)(=O)c4cccc5nccnc45)cc3)CC2)sn1` [Compound 511, N-(4-(4-hydroxy-4-((3-methylisothiazol-5-yl)methyl)piperidine-1-carbonyl)phenyl)quinoxaline-5-sulfonamide], for which the AC50 is 101 to 1000 nM in assay [1], under 100 nM in assay [2], 101 to 1000 nM in assay [3] and under 100 nM in assay [4].

`Cc1n[nH]c(C)c1CC1(O)CCN(C(=O)c2ccc(NS(=O)(=O)c3cccc4nccnc34)cc2)CC1` [Compound 512, N-(4-(4-((3,5-dimethyl-1H-pyrazol-4-yl)methyl)-4-hydroxypiperidine-1-carbonyl)phenyl)quinoxaline-5-sulfonamide]: the AC50 in assay [1] is 101 to 1000 nM; in assay [2], under 100 nM; in assay [3] it was 101 to 1000 nM; in assay [4], under 100 nM.

`CC(C)CC1(O)CCN(C(=O)c2ccc(NS(=O)(=O)c3cncc4cccnc34)cc2)CC1` [Compound 513, N-(4-(4-hydroxy-4-isobutylpiperidine-1-carbonyl)phenyl)-1,6-naphthyridine-8-sulfonamide]: the AC50 was 101 to 1000 nM in assay [1], under 100 nM in assay [2], under 100 nM in assay [3] and under 100 nM in assay [4].

For `Cc1n[nH]c(C)c1CC1(O)CCN(C(=O)c2ccc(NS(=O)(=O)c3cccc4scnc34)cc2)CC1` [Compound 514], the AC50 in assay [1] was 101 to 1000 nM; in assay [2] it was under 100 nM; in assay [3] it was 101 to 1000 nM; in assay [4] it was under 100 nM.

Take `Cc1cc(C2(O)CCN(C(=O)c3ccc(NS(=O)(=O)c4cccc5nccnc45)cc3)CC2)sn1` [Compound 518, N-(4-(4-hydroxy-4-(3-methylisothiazol-5-yl)piperidine-1-carbonyl)phenyl)quinoxaline-5-sulfonamide]: the half-maximal activity concentration (AC50) is 101 to 1000 nM in assay [1], under 100 nM in assay [2], 101 to 1000 nM in assay [3] and under 100 nM in assay [4].

With `Cc1nscc1CC1(O)CCN(C(=O)c2ccc(NS(=O)(=O)c3cccc4ncsc34)cc2)CC1` [Compound 519, N-(4-(4-hydroxy-4-((3-methylisothiazol-4-yl)methyl)piperidine-1-carbonyl)phenyl)benzo[d]thiazole-7-sulfonamide], the half-maximal activity concentration (AC50) in assay [1], in assay [2], in assay [3] and in assay [4] was under 100 nM each time.

Take `Cc1noc(C)c1CC1(O)CCN(C(=O)c2ccc(NS(=O)(=O)c3cccc4scnc34)cc2)CC1` [Compound 520, N-(4-(4-((3,5-dimethylisoxazol-4-yl)methyl)-4-hydroxypiperidine-1-carbonyl)phenyl)benzo[d]thiazole-4-sulfonamide]: the half-maximal activity concentration (AC50) is 101 to 1000 nM in assay [1], under 100 nM in assay [2], 101 to 1000 nM in assay [3] and under 100 nM in assay [4].

Take `Cc1noc(C)c1CC1(O)CCN(C(=O)c2ccc(NS(=O)(=O)c3cccc4nccnc34)cc2)CC1` [Compound 521, N-(4-(4-((3,5-dimethylisoxazol-4-yl)methyl)-4-hydroxypiperidine-1-carbonyl)phenyl)quinoxaline-5-sulfonamide]: the half-maximal activity concentration (AC50) in assay [1] is 101 to 1000 nM; in assay [2], under 100 nM; in assay [3], under 100 nM; in assay [4] it was under 100 nM.

For the molecule `O=C(c1ccc(NS(=O)(=O)c2cccc3scnc23)cc1)N1CCC(O)(c2sncc2Cl)CC1` [Compound 522, N-(4-(4-(4-chloroisothiazol-5-yl)-4-hydroxypiperidine-1-carbonyl)phenyl)benzo[d]thiazole-4-sulfonamide], the half-maximal activity concentration (AC50) was 101 to 1000 nM in assay [1], under 100 nM in assay [2], under 100 nM in assay [3] and under 100 nM in assay [4].

For `O=C(c1ccc(NS(=O)(=O)c2cccc3nccnc23)cc1)N1CCC(O)(Cc2c(O)n[nH]c2C(F)(F)F)CC1` [Compound 523], the half-maximal activity concentration (AC50) in assay [1] lay in the range of 1010 to 10000 nM; in assay [2], 101 to 1000 nM; in assay [3], 101 to 1000 nM; in assay [4], 101 to 1000 nM.

As to `CC(C)CC1(OC(=O)OCOP(=O)(O)O)CCN(C(=O)c2ccc(NS(=O)(=O)c3cccc4scnc34)cc2)CC1` [Compound 526], the half-maximal activity concentration (AC50) in assay [1] is 101 to 1000 nM; in assay [2], 101 to 1000 nM; in assay [3] it was under 100 nM; in assay [4], 101 to 1000 nM.

Regarding `CC(C)CC1(OC(=O)OCOP(=O)(O)O)CCN(C(=O)c2ccc(NS(=O)(=O)c3cccc4nccnc34)cc2)CC1` [Compound 527, 4-isobutyl-1-(4-(quinoxaline-5-sulfonamido)benzoyl)piperidin-4-yl phosphonooxymethyl carbonate], the AC50 in assay [1] is 101 to 1000 nM; in assay [2], 101 to 1000 nM; in assay [3], under 100 nM; in assay [4], 101 to 1000 nM.
